Test results: PMC6268315, “Investigating the Spectrum of Biological Activity of Substituted Quinoline-2-Carboxamides and Their Isosteres ^†” (Molecules, 2012)
“And” between values parts separate entries of the source, which are not always exact repeats. Identical values can stand only once.

Columns and labels:
[1] = system: photosynthetic electron transport (PET) in spinach chloroplasts; experiment: Inhibition of photosynthetic electron transport (PET) in spinach chloroplasts; assay type: biochemical, Spinacia oleracea L.; conditions: photoreduction of DCPIP, pH 7.2
Description: Chloroplasts were prepared from spinach (Spinacia oleracea L.) according to Masarovicova and Kralova. The inhibition of photosynthetic electron transport (PET) in spinach chloroplasts was determined spectrophotometrically (Genesys 6, Thermo Scientific, USA), using an artificial electron acceptor 2,6-dichlorophenol-indophenol (DCIPP) according to Kralova et al., and the rate of photosynthetic electron transport was monitored as a photoreduction of DCPIP. The measurements were carried out in phosphate buffer (0.02 mol/L, pH 7.2) containing sucrose (0.4 mol/L), MgCl2 (0.005 mol/L) and NaCl (0.015 mol/L). The chlorophyll content was 30 mg/L in these experiments and the samples were irradiated (~100 W/m^2 with 10 cm distance) with a halogen lamp (250 W) using a 4 cm water filter to prevent warming of the samples (suspension temperature 22 °C). The studied compounds were dissolved in DMSO due to their limited water solubility. […] The inhibitory efficiency of the studied compounds was expressed by IC50 values, i.e., by molar concentration of the compounds causing 50% decrease in the oxygen evolution rate relative to the untreated control.

| Structure (SMILES) | melting point [°C] | IC50 [1] |
| --- | --- | --- |
| Cc1ccccc1NC(=O)c1ccc2ccccc2n1 [Compound 14a, N-(2-Methylphenyl)quinoline-2-carboxamide] | 100 to 101 | 143 µM |
| COc1cccc(NC(=O)c2ccc3ccccc3n2)c1 [Compound 13b, N-(3-Methoxyphenyl)quinoline-2-carboxamide] | 117 to 118 |  |
| O=C(NC1CCCCCCC1)c1ccc2ccccc2c1 [Compound 27, N-Cyclooctyl-2-naphthamide] | 145 to 146 | 688 µM |
| O=C(NC1CCCCC1)c1ccc2ccccc2c1 [Compound 25, N-Cyclohexyl-2-naphthamide] | 184 to 185 |  |
| CC(C)NC(=O)c1ccc2ccccc2c1 [Compound 20, N-Isopropyl-2-naphthamide] | 174 to 176 | 353 µM |
| Cc1ccc(NC(=O)c2ccc3ccccc3n2)cc1 [Compound 14c, N-(4-Methylphenyl)quinoline-2-carboxamide] | 107 to 108 |  |
| CN(C)C(=O)Nc1ccc(Cl)c(Cl)c1 [DCMU, 3-(3,4-dichlorophenyl)-1,1-dimethylurea, reference compound] |  | ~1.9 µM and 1.9 µM |
| O=C(Nc1cccc(F)c1)c1ccc2ccccc2n1 [Compound 15b, N-(3-Fluorophenyl)quinoline-2-carboxamide] | 126 to 127 | 86.9 µM |
| O=C(NC1CCCC1)c1ccc2ccccc2c1 [Compound 24, N-Cyclopentyl-2-naphthamide] | 190 to 191 |  |
| O=C(NCCc1ccccc1)c1ccc2ccccc2c1 [Compound 30, N-(2-Phenylethyl)-2-naphthamide] | 133 to 134 |  |
| CCCCCCCCCCCCNC(=O)c1ccc2ccccc2c1 [Compound 21, N-Dodecyl-2-naphthamide] | 102 to 103 | 845 µM |
| O=C(Nc1cccc(O)c1)c1ccc2ccccc2n1 [Compound 12b, N-(3-Hydroxyphenyl)quinoline-2-carboxamide] | 154 to 155 |  |
| O=C(Nc1ccc(O)cc1)c1ccc2ccccc2n1 [Compound 12c, N-(4-Hydroxyphenyl)quinoline-2-carboxamide] | 230 to 231 |  |
| O=C(Nc1ccccc1O)c1ccc2ccccc2n1 [Compound 12a, N-(2-Hydroxyphenyl)quinoline-2-carboxamide] | 219 to 220 | 16.3 µM |
| O=C(c1ccc2ccccc2n1)N1CCCCC1 [Compound 4, 2-(Piperidin-1-ylcarbonyl)quinoline] | 83 to 84 |  |
| O=C(Nc1ccccc1F)c1ccc2ccccc2n1 [Compound 15a, N-(2-Fluorophenyl)quinoline-2-carboxamide] | 116 to 117 | 98.1 µM |
| O=C(Nc1ccc(F)cc1)c1ccc2ccccc2n1 [Compound 15c, N-(4-Fluorophenyl)quinoline-2-carboxamide] | 115 to 116 | 75.3 µM |
| O=C(NCc1ccccc1)c1ccc2ccccc2c1 [Compound 29, N-Benzyl-2-naphthamide] | 138 to 139 | 7.5 µM |
| COc1ccc(NC(=O)c2ccc3ccccc3n2)cc1 [Compound 13c, N-(4-Methoxyphenyl)quinoline-2-carboxamide] | 130 to 131 |  |
| O=C(Nc1ccccc1)c1ccc2ccccc2c1 [Compound 28, N-Phenyl-2-naphthamide] |  | 20.7 µM |
| O=C(NC1CCCCCC1)c1ccc2ccccc2c1 [Compound 26, N-Cycloheptyl-2-naphthamide] | 157 to 158 | 216 µM |
| O=C(c1ccc2ccccc2c1)N1CCCCC1 [Compound 23, 1-(2-Naphthoyl)piperidine] | 97 to 98 |  |
| O=C(NCc1ccccc1)c1ccc2ccccc2n1 [Compound 10, N-Benzylquinoline-2-carboxamide] | 123 to 124 | 59.4 µM |
| COc1ccccc1NC(=O)c1ccc2ccccc2n1 [Compound 13a, N-(2-Methoxyphenyl)quinoline-2-carboxamide] | 111 to 112 |  |

Next, values leading:

| melting point [°C] | IC50 [1] | Structure (SMILES) |
| --- | --- | --- |
| 123 |  | O=C(Nc1ccccc1Br)c1ccc2ccccc2c1 [Compound 36a, N-(2-Bromophenyl)-2-naphthamide] |
| 146 |  | Cc1ccccc1NC(=O)c1ccc2ccccc2c1 [Compound 33a, N-(2-Methylphenyl)-2-naphthamide] |
| 195 |  | Cc1ccc(NC(=O)c2ccc3ccccc3c2)cc1 [Compound 33c, N-(4-Methylphenyl)-2-naphthamide] |
| 142 | 306 µM | COc1cccc(NC(=O)c2ccc3ccccc3c2)c1 [Compound 32b, N-(3-Methoxyphenyl)-2-naphthamide] |
| 121 to 122 | 330 µM | O=C(Nc1cccc(C(F)(F)F)c1)c1ccc2ccccc2n1 [Compound 18b, N-(3-Trifluoromethylphenyl)quinoline-2-carboxamide] |
| 189 to 190 |  | O=C(Nc1cccc([N+](=O)[O-])c1)c1ccc2ccccc2n1 [Compound 19b, N-(3-Nitrophenyl)quinoline-2-carboxamide] |
| 150 | 309 µM | O=C(Nc1cccc(C(F)(F)F)c1)c1ccc2ccccc2c1 [Compound 37b, N-(3-Trifluoromethylphenyl)-2-naphthamide] |
| 180 | 81 µM | O=C(Nc1cccc(Cl)c1)c1ccc2ccccc2c1 [Compound 35b, N-(3-Chlorophenyl)-2-naphthamide] |
| 130 to 131 | 56.3 µM | O=C(Nc1ccccc1Cl)c1ccc2ccccc2n1 [Compound 16a, N-(2-Chlorophenyl)quinoline-2-carboxamide] |
| 177 | 633 µM | O=C(Nc1cccc([N+](=O)[O-])c1)c1ccc2ccccc2c1 [Compound 38b, N-(3-Nitrophenyl)-2-naphthamide] |
| 116 |  | O=C(Nc1ccccc1Cl)c1ccc2ccccc2c1 [Compound 35a, N-(2-Chlorophenyl)-2-naphthamide] |
| 160 |  | Cc1cccc(NC(=O)c2ccc3ccccc3c2)c1 [Compound 33b, N-(3-Methylphenyl)-2-naphthamide] |
| 147 to 148 |  | O=C(Nc1ccc(C(F)(F)F)cc1)c1ccc2ccccc2n1 [Compound 18c, N-(4-Trifluoromethylphenyl)quinoline-2-carboxamide] |
| 181 to 182 |  | O=C(Nc1ccccc1[N+](=O)[O-])c1ccc2ccccc2n1 [Compound 19a, N-(2-Nitrophenyl)quinoline-2-carboxamide] |
| 200 | 260 µM | O=C(Nc1ccc([N+](=O)[O-])cc1)c1ccc2ccccc2c1 [Compound 38c, N-(4-Nitrophenyl)-2-naphthamide] |
| 122 |  | O=C(Nc1ccccc1F)c1ccc2ccccc2c1 [Compound 34a, N-(2-Fluorophenyl)-2-naphthamide] |
| 191 |  | O=C(Nc1ccc(F)cc1)c1ccc2ccccc2c1 [Compound 34c, N-(4-Fluorophenyl)-2-naphthamide] |
| 193 | 103 µM | O=C(Nc1cccc(Br)c1)c1ccc2ccccc2c1 [Compound 36b, N-(3-Bromophenyl)-2-naphthamide] |
| 194 |  | O=C(Nc1cccc(O)c1)c1ccc2ccccc2c1 [Compound 31b, N-(3-Hydroxyphenyl)-2-naphthamide] |
| 134 to 135 | 92.2 µM | O=C(Nc1ccccc1Br)c1ccc2ccccc2n1 [Compound 17a, N-(2-Bromophenyl)quinoline-2-carboxamide] |
| 227 to 228 |  | O=C(Nc1ccc([N+](=O)[O-])cc1)c1ccc2ccccc2n1 [Compound 19c, N-(4-Nitrophenyl)quinoline-2-carboxamide] |
| 157 to 158 | 308 µM | O=C(Nc1ccc(Br)cc1)c1ccc2ccccc2n1 [Compound 17c, N-(4-Bromophenyl)quinoline-2-carboxamide] |
| 139 to 140 | 409 µM | O=C(Nc1cccc(Br)c1)c1ccc2ccccc2n1 [Compound 17b, N-(3-Bromophenyl)quinoline-2-carboxamide] |
| 134 to 135 | 148 µM | O=C(Nc1ccc(Cl)cc1)c1ccc2ccccc2n1 [Compound 16c, N-(4-Chlorophenyl)quinoline-2-carboxamide] |
| 136 |  | O=C(Nc1ccccc1[N+](=O)[O-])c1ccc2ccccc2c1 [Compound 38a, N-(2-Nitrophenyl)-2-naphthamide] |
| 224 |  | O=C(Nc1ccc(C(F)(F)F)cc1)c1ccc2ccccc2c1 [Compound 37c, N-(4-Trifluoromethylphenyl)-2-naphthamide] |
| 231 |  | O=C(Nc1ccc(Br)cc1)c1ccc2ccccc2c1 [Compound 36c, N-(4-Bromophenyl)-2-naphthamide] |
| 120 to 121 | 109 µM | O=C(Nc1ccccc1C(F)(F)F)c1ccc2ccccc2n1 [Compound 18a, N-(2-Trifluoromethylphenyl)quinoline-2-carboxamide] |
| 167 |  | O=C(Nc1cccc(F)c1)c1ccc2ccccc2c1 [Compound 34b, N-(3-Fluorophenyl)-2-naphthamide] |
| 218 |  | O=C(Nc1ccc(Cl)cc1)c1ccc2ccccc2c1 [Compound 35c, N-(4-Chlorophenyl)-2-naphthamide] |
